Patent publication EP2735563A1, “Meta substituted 2-[phenoxy-phenyl]-1-[1,2,4]triazol-1-yl-ethanol compounds and their use as fungicides” (BASF SE, priority 2012, dated 2014)

What was measured:
Type in all cases: cell-based
Settings in all cases: relative growth vs active compound-free control (100%), absorption at 405 nm 7 days after inoculation, 18°C
Septoria tritici = assay: Activity against leaf blotch on wheat caused by Septoria tritici (Septtr), microtiter plate test
Pyricularia oryzae = test system: Pyricularia oryzae
Botrytis cinerea = assay: Activity against the grey mold Botrytis cinerea in the microtiterplate test (Botrci)

SMILES	Growth (%) at 31 ppm Septtr (Septoria tritici) [%]	Growth (%) at 31 ppm Pyrior (Pyricularia oryzae) [%]	Growth (%) at 31 ppm Botrci (Botrytis cinerea) [%]
CC(O)(Cn1cncn1)c1ccc(Oc2ccc(Cl)cc2)c(C(F)(F)F)c1 (centres unmarked) [Compound I-5]	14	0	–
COC(C)(Cn1cncn1)c1ccc(Oc2ccc(Cl)cc2)c(Cl)c1 (centres unmarked) [Compound I-3, 1-[2-[3-chloro-4-(4-chlorophenoxy)phenyl]-2-methoxy-propyl]-1,2,4-triazole]	–	0	–
CC(O)(Cn1cncn1)c1ccc(Oc2ccc(Cl)cc2)c(Cl)c1 (centres unmarked) [Compound I-4, 2-[3-chloro-4-(4-chlorophenoxy)phenyl]-1-(1,2,4-triazol-1-yl)propan-2-ol]	–	0	17
OC(Cn1cncn1)c1ccc(Oc2ccc(Cl)cc2)c(Cl)c1 (centres unmarked) [Compound I-2, 1-[3-Chloro-4-(4-chlorophenoxy)phenyl]-2-(1,2,4-triazol-1-yl)ethanol]	–	1	13
COC(C)(Cn1cncn1)c1ccc(Oc2ccc(Cl)cc2)c(C(F)(F)F)c1 (centres unmarked) [Compound I-6]	–	0	–
